Measurements reported in the supplement of paper PMC11208160.

Assay: recombinant barcode read abundance after kanamycin selection (control-corrected) (log10(CPM+1)); higher = more efficient recombination; sequences stand for … in AGTGCAGAGAAAATCGGCCAGTTTTCTCTGCCTGCAGTCCGCATGCCGT…AGATTTATGCAGCGGACTGCCTTTCTCCCAAAGTGATAAACCGGACAGTATCATGGACCGGTTTTCCCGGTAATCCGTATTTGCAAGGTTGGTTTCACT; site = the 11-nt target
Procedure: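 Pooled E. coli target-specificity screen for the IS621 bridge recombinase. Each library plasmid pairs an 11-nt target (CT core) with a bridge RNA whose target-binding loop (9-nt LTG + 4-nt RTG) is reprogrammed; the rest of the 177-nt WT IS621 bridge RNA scaffold is fixed. The plasmid is co-electroporated with a WT donor plasmid; recombinase is induced with 0.1 mM IPTG and recombinants are selected on kanamycin. Recombinant barcodes are sequenced, converted to CPM, averaged over two biological replicates and corrected by the unselected control CPM. Molecule = full bridge RNA written as DNA: LTG = specificity nt 1-9, RTG = reverse complement of specificity nt 8-11, in the WT scaffold.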
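Further: IS621 recombinase and bridge RNA in Escherichia coli cells.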

Row | Sequence | recombinant barcode read abundance (log10)
1 | AAGAGAGCTTGGGTTCTAACCTGTTGCCT (site AAGAGAGCTAG) | 1.91
2 | AAGAGAGCTTGGGTTCTAACCTGTTGCCT (site AAGATAGCTAG) | 0.0307
3 | AAGATCACTTGGGTTCTAACCTGTTGCGG (site AAGATCACTCC) | 2.36
4 | AAGATCACTTGGGTTCTAACCTGTTGCGG (site TTACATGCTAG) | 0.026
5 | AAGCAAACTTGGGTTCTAACCTGTTGCCT (site AAGCAAACTAG) | 0.66
6 | AAGCAAACTTGGGTTCTAACCTGTTGCCT (site AAGCCAACTAG) | 0.0799
7 | AAGCAAACTTGGGTTCTAACCTGTTGCCT (site AAGCGAACTAG) | 0.22
8 | AAGCAAACTTGGGTTCTAACCTGTTGCCT (site AAGCTAACTAG) | 0.218
9 | AAGCAATCTTGGGTTCTAACCTGTTGCCT (site AAGCAATCTAG) | 0.927
10 | AAGCAATCTTGGGTTCTAACCTGTTGCCT (site AAGCACTCTAG) | 0.159
11 | AAGCAATCTTGGGTTCTAACCTGTTGCCT (site AAGCAGTCTAG) | 0.0406
12 | AAGCAATCTTGGGTTCTAACCTGTTGCCT (site AAGCATTCTAG) | 0.126
13 | AAGCCACCTTGGGTTCTAACCTGTTGCCT (site AAGCCACCTAG) | 2.3
14 | AAGCCACCTTGGGTTCTAACCTGTTGCCT (site CAGCCACCTAG) | 0.126
15 | AAGCCACCTTGGGTTCTAACCTGTTGCCT (site GAGCCACCTAG) | 0.392
16 | AAGCCACCTTGGGTTCTAACCTGTTGCCT (site TAGCCACCTAG) | 1.31
17 | AAGCGTCCTTGGGTTCTAACCTGTTGCCT (site AAGCGTACTAG) | 0.384
18 | AAGCGTCCTTGGGTTCTAACCTGTTGCCT (site AAGCGTCCTAG) | 1.24
19 | AAGCGTCCTTGGGTTCTAACCTGTTGCCT (site AAGCGTGCTAG) | 0.583
20 | AAGCGTCCTTGGGTTCTAACCTGTTGCCT (site AAGCGTTCTAG) | 0.06
21 | AAGCTTGCTTGGGTTCTAACCTGTTGCCT (site AAGCTTGCTAG) | 1.1

Row | Sequence | recombinant barcode read abundance (log10)
22 | AAGCTTGCTTGGGTTCTAACCTGTTGCCT (site CGATGGACTCA) | 0.315
23 | AAGGACGCTTGGGTTCTAACCTGTTGCCT (site AAGGACGCTAG) | 2.72
24 | AAGGACGCTTGGGTTCTAACCTGTTGCCT (site AAGGCCGCTAG) | 0.241
25 | AAGGACGCTTGGGTTCTAACCTGTTGCCT (site AAGGGCGCTAG) | 0.309
26 | AAGGACGCTTGGGTTCTAACCTGTTGCCT (site AAGGTCGCTAG) | 0.0217
27 | AAGGGTTCTTGGGTTCTAACCTGTTGCCA (site AAGGGTTCTTG) | 1.78
28 | AAGGGTTCTTGGGTTCTAACCTGTTGCCA (site ACGGGTACTTG) | 0.0285
29 | AAGGTTCCTTGGGTTCTAACCTGTTGCTA (site AAGGTCCCTTG) | 0.0242
30 | AAGGTTCCTTGGGTTCTAACCTGTTGCTA (site AAGGTTCCTTA) | 1.73
31 | AAGTACACTTGGGTTCTAACCTGTTGCTG (site AAGTACACTCA) | 2.75
32 | AAGTACACTTGGGTTCTAACCTGTTGCTG (site CGACTGTCTAG) | 0.0537
33 | AAGTGCTCTTGGGTTCTAACCTGTTGCCT (site AAGTGCTCTAG) | 2.34
34 | AAGTGCTCTTGGGTTCTAACCTGTTGCCT (site ACGTGCTCTAG) | 0.129
35 | AAGTGCTCTTGGGTTCTAACCTGTTGCCT (site AGGTGCTCTAG) | 0.124
36 | AAGTGCTCTTGGGTTCTAACCTGTTGCCT (site ATGTGCTCTAG) | 0.127
37 | AAGTGTCCTTGGGTTCTAACCTGTTGCAT (site AAGTGTCCTAT) | 1.73
38 | AAGTGTCCTTGGGTTCTAACCTGTTGCAT (site AAGTTTCCTAT) | 0.0208
39 | AAGTTTACTTGGGTTCTAACCTGTTGCTT (site AAGTTTACTAA) | 0.177
40 | AAGTTTACTTGGGTTCTAACCTGTTGCTT (site AAGTTTACTAG) | 0.0137
41 | AAGTTTCCTTGGGTTCTAACCTGTTGCGT (site AAGTTTCCTAC) | 0.923
42 | AAGTTTCCTTGGGTTCTAACCTGTTGCGT (site ACGTTTCCTAT) | 0.102

Row | Sequence | recombinant barcode read abundance (log10)
43 | AATACCTCTTGGGTTCTAACCTGTTGCCT (site AATACCTCTAG) | 1.03
44 | AATACCTCTTGGGTTCTAACCTGTTGCCT (site ACTACCTCTAG) | 0.0183
45 | AATACCTCTTGGGTTCTAACCTGTTGCCT (site AGTACCTCTAG) | 0.0751
46 | AATACCTCTTGGGTTCTAACCTGTTGCCT (site ATTACCTCTAG) | 0.0243
47 | AATACTACTTGGGTTCTAACCTGTTGCCT (site AATACTACTAG) | 1.04
48 | AATACTACTTGGGTTCTAACCTGTTGCCT (site ACTACTACTAG) | 0.0229
49 | AATACTACTTGGGTTCTAACCTGTTGCCT (site AGTACTACTAG) | 0.0104
50 | AATACTACTTGGGTTCTAACCTGTTGCCT (site ATTACTACTAG) | 0
51 | AATACTACTTGGGTTCTAACCTGTTGCTG (site AATACTACTCA) | 0.256
52 | AATACTACTTGGGTTCTAACCTGTTGCTG (site AGTACTCCTCA) | 0.196
53 | AATAGTGCTTGGGTTCTAACCTGTTGCCT (site AATAGTGCTAG) | 0.203
54 | AATAGTGCTTGGGTTCTAACCTGTTGCCT (site ACTAGTGCTAG) | 0.101
55 | AATAGTGCTTGGGTTCTAACCTGTTGCCT (site AGTAGTGCTAG) | 0.176
56 | AATAGTGCTTGGGTTCTAACCTGTTGCCT (site ATTAGTGCTAG) | 0.045
57 | AATCGAACTTGGGTTCTAACCTGTTGCCT (site AATCGAACTAG) | 0.297
58 | AATCGAACTTGGGTTCTAACCTGTTGCCT (site GATCGAACTAG) | 0.15
59 | AATCTAACTTGGGTTCTAACCTGTTGCCT (site AATCTAACTAG) | 0.527
60 | AATCTAACTTGGGTTCTAACCTGTTGCCT (site GGCGCCTCTGC) | 0.538
61 | AATCTGTCTTGGGTTCTAACCTGTTGCGT (site AATCTGTCTAC) | 1.8
62 | AATCTGTCTTGGGTTCTAACCTGTTGCGT (site TAGCTGTCTAC) | 0.149
63 | AATGATTCTTGGGTTCTAACCTGTTGCGT (site AATGATTCTAC) | 2.27

Row | Sequence | recombinant barcode read abundance (log10)
64 | AATGATTCTTGGGTTCTAACCTGTTGCGT (site GGGCCGGCTCG) | 0.433
65 | AATGCATCTTGGGTTCTAACCTGTTGCCT (site AATGAATCTAG) | 0.0891
66 | AATGCATCTTGGGTTCTAACCTGTTGCCT (site AATGCATCTAG) | 0.285
67 | AATGCATCTTGGGTTCTAACCTGTTGCCT (site AATGGATCTAG) | 0.054
68 | AATGCATCTTGGGTTCTAACCTGTTGCCT (site AATGTATCTAG) | 0.0299
69 | AATGCTACTTGGGTTCTAACCTGTTGCCA (site AAAACTACTTG) | 0.127
70 | AATGCTACTTGGGTTCTAACCTGTTGCCA (site AATGCTACTTG) | 0.266
71 | AATGGATCTTGGGTTCTAACCTGTTGCCT (site AATGAATCTAG) | 0.0825
72 | AATGGATCTTGGGTTCTAACCTGTTGCCT (site AATGCATCTAG) | 0.0416
73 | AATGGATCTTGGGTTCTAACCTGTTGCCT (site AATGGATCTAG) | 1.01
74 | AATGGATCTTGGGTTCTAACCTGTTGCCT (site AATGTATCTAG) | 0.0683
75 | AATGGGTCTTGGGTTCTAACCTGTTGCCT (site AATGGGACTAG) | 0.0612
76 | AATGGGTCTTGGGTTCTAACCTGTTGCCT (site AATGGGCCTAG) | 0.132
77 | AATGGGTCTTGGGTTCTAACCTGTTGCCT (site AATGGGGCTAG) | 0.04
78 | AATGGGTCTTGGGTTCTAACCTGTTGCCT (site AATGGGTCTAG) | 1.3
79 | AATTAAGCTTGGGTTCTAACCTGTTGCCT (site AATTAAGCTAG) | 1.28
80 | AATTAAGCTTGGGTTCTAACCTGTTGCCT (site AATTCAGCTAG) | 0.159
81 | AATTAAGCTTGGGTTCTAACCTGTTGCCT (site AATTGAGCTAG) | 0.088
82 | AATTAAGCTTGGGTTCTAACCTGTTGCCT (site AATTTAGCTAG) | 0.223
